Experimental data taken from US20050113450A1, “Antibacterial agents” (priority 2002, published 2005).
In brackets after ≈: the same amount, converted by molar mass.

Tested on: SA 9218
Test: MIC by standard agar dilution method
Format: cell-based
Details: Mueller Hinton agar, 10^4 to 10^5 cells per spot, incubated overnight at 35° C., lowest concentration that inhibits visible growth
From the text: The antibacterial agents of this invention have useful activity against a variety of organisms. The in vitro activity of compounds of this invention can be assessed by standard testing procedures such as the determination of minimum inhibitory concentration (MIC) by agar dilution as described in “Approved Standard. Methods for Dilution Antimicrobial Susceptibility Tests for Bacteria That Grow Aerobically”, 3rd. ed., published 1993 by the National Committee for Clinical Laboratory Standards, Villanova, Pa., USA. The in vitro MICs of test compounds were determined by a standard agar dilution method. A stock drug solution of each analog was prepared in the preferred solvent, usually DMSO:H2O (1:3). Serial 2-fold dilutions of each sample are made using 1.0 ml aliquots of sterile distilled water. To each 1.0 ml aliquot of drug was added 9 ml of molten Mueller Hinton agar medium. The drug-supplemented agar was mixed, poured into 15×100 mm petri dishes, and allowed to solidify and dry prior to inoculation. Vials of each of the test organisms are maintained frozen in the vapor phase of a liquid nitrogen freezer. Test cultures are grown overnight at 35° C. on the medium appropriate for the organism. Colonies are harvested with a sterile swab, and cell suspensions are prepared in Trypticase Soy broth (TSB) to equal the turbidity of a 0.5 McFarland standard. A 1:20 dilution of each suspension was made in TSB. The plates containing the drug supplemented agar are inoculated with a 0.001 ml drop of the cell suspension using a Steers replicator, yielding approximately 10^4 to 10^5 cells per spot. The plates are incubated overnight at 35° C. Following incubation the Minimum Inhibitory Concentration (MIC μg/ml), the lowest concentration of drug that inhibits visible growth of the organism, was read and recorded.

Structure (SMILES)	MIC [µg/mL]
CCOCC(=NO)c1ccc(C(=O)Nc2ccc(Cl)cc2C(=O)O)cc1	64 (≈ 170 µM)
CC(=O)Oc1ccc(N2C(=O)c3ccc(C(=O)Nc4ccc(Br)cc4C(=O)O)cc3C2=O)cc1	64 (≈ 122 µM)
O=C(Nc1ccc(Cl)cc1C(=O)O)c1ccc(C(=NO)C2CCCO2)cc1 (stereo not drawn)	32 (≈ 82.3 µM)
COc1ccc(C(=O)Nc2ccc(Br)cc2C(=O)O)cc1S(=O)(=O)NCCc1ccc(N)cc1	128 (≈ 233 µM)
O=C(Nc1ccc(Br)cc1C(=O)O)c1cccc(S(=O)(=O)NCCCn2ccnc2)c1	64 (≈ 126 µM)
O=C(Nc1ccc(Br)cc1C(=O)O)c1ccc(S(=O)(=O)NC2Cc3ccccc3C2)cc1	32 (≈ 62.1 µM)
CN(C)c1ccc(CNS(=O)(=O)c2cc(C(=O)Nc3ccc(Br)cc3C(=O)O)ccc2Br)cc1	64 (≈ 105 µM)
CCN(Cc1ccncc1)S(=O)(=O)c1ccc(C(=O)Nc2ccc(Br)cc2C(=O)O)cc1	32 (≈ 61.7 µM)
CN(C)c1ccc(CNS(=O)(=O)c2cccc(C(=O)Nc3ccc(Br)cc3C(=O)O)c2)cc1	64 (≈ 120 µM)
Cc1ccc(C(=O)Nc2ccc(Br)cc2C(=O)O)cc1S(=O)(=O)NCc1ccc(N(C)C)cc1	128 (≈ 234 µM)
CN(C)c1ccc(CNS(=O)(=O)c2ccc(Br)c(C(=O)Nc3ccc(Br)cc3C(=O)O)c2)cc1	16 (≈ 26.2 µM)
Cc1ccc(C(=O)Nc2ccc(Br)cc2C(=O)O)cc1S(=O)(=O)N1CCc2ccccc21	1 (≈ 1.94 µM)
CN(C)c1ccc(CNS(=O)(=O)c2ccc(C(=O)Nc3ccc(Br)cc3C(=O)O)cc2)cc1	128 (≈ 240 µM)
O=C(Nc1ccc(Br)cc1C(=O)O)c1cc(S(=O)(=O)N2CCc3ccccc32)c(F)cc1Cl	8 (≈ 14.4 µM)
Cc1ccc(C(=O)Nc2ccc(Br)cc2C(=O)O)cc1S(=O)(=O)Nc1ccc(Cl)c2ccccc12	8 (≈ 13.9 µM)
Cc1ccc(S(=O)(=O)Nc2ccc3c(c2)OCCO3)cc1C(=O)Nc1ccc(Br)cc1C(=O)O	64 (≈ 117 µM)
O=C(Nc1ccc(Br)cc1C(=O)O)c1cc(S(=O)(=O)Nc2ccc3c(c2)OCCO3)ccc1Br	0.5 (≈ 0.817 µM)
Cc1ccc(C(=O)Nc2ccc(Br)cc2C(=O)O)cc1S(=O)(=O)Nc1ccc2c(c1)OCCO2	1 (≈ 1.83 µM)
O=C(Nc1ccc(Br)cc1C(=O)O)c1ccc(S(=O)(=O)Nc2ccc3c(c2)OCCO3)cc1	16 (≈ 30 µM)
COc1ccc(C(=O)Nc2ccc(Br)cc2C(=O)O)cc1S(=O)(=O)Nc1ccc2c(c1)OCCO2	8 (≈ 14.2 µM)
O=C(Nc1ccc(Br)cc1C(=O)O)c1cccc(S(=O)(=O)Nc2ccc(N3CCOCC3)cc2)c1	32 (≈ 57.1 µM)
O=C(Nc1ccc(Br)cc1C(=O)O)c1cccc(S(=O)(=O)Nc2ccc3c(c2)OCCO3)c1	4 (≈ 7.5 µM)
CCN(CC)c1ccc(NS(=O)(=O)c2cc(C(=O)Nc3ccc(Br)cc3C(=O)O)ccc2C)cc1	64 (≈ 114 µM)
CCN(CC)c1ccc(NS(=O)(=O)c2cccc(C(=O)Nc3ccc(Br)cc3C(=O)O)c2)cc1	128 (≈ 234 µM)
O=C(Nc1ccc(Br)cc1C(=O)O)c1ccc(S(=O)(=O)Nc2ccc(N3CCOCC3)cc2)cc1	64 (≈ 114 µM)
Cc1ccc(C(=O)Nc2ccc(Br)cc2C(=O)O)cc1S(=O)(=O)N1CCc2ccc(Cl)cc21	1 (≈ 1.82 µM)
CCN(CC)c1ccc(NS(=O)(=O)c2cc(C(=O)Nc3ccc(Br)cc3C(=O)O)ccc2Br)cc1	64 (≈ 102 µM)

Structure (SMILES)	MIC [µg/mL]
O=C(Nc1ccc(Br)cc1C(=O)O)c1cccc(S(=O)(=O)N2CCc3ccc(Cl)cc32)c1	2 (≈ 3.73 µM)
CCN(CC)c1ccc(NS(=O)(=O)c2ccc(C(=O)Nc3ccc(Br)cc3C(=O)O)cc2)cc1	32 (≈ 58.6 µM)
O=C(Nc1ccc(Br)cc1C(=O)O)c1ccc(S(=O)(=O)C2CCc3ccc(Cl)cc32)cc1 (stereo not drawn)	0.5 (≈ 0.935 µM)
O=C(Nc1ccc(Br)cc1C(=O)O)c1cc(S(=O)(=O)N2CCc3ccc(Cl)cc32)ccc1Br	2 (≈ 3.25 µM)
O=C(Nc1ccc(Br)cc1C(=O)O)c1cc(S(=O)(=O)N2CCc3ccc(Cl)cc32)c(F)cc1Cl	16 (≈ 27.2 µM)
O=C(O)c1cc(Br)ccc1NC(=O)c1cccc2c1-c1ccccc1C2=O	128 (≈ 303 µM)
CCOc1cc(C(=O)Nc2ccc(Br)cc2C(=O)O)cc(OCC)c1OCC	32 (≈ 70.7 µM)
O=C(Nc1ccc(Br)cc1C(=O)O)c1ccc(-c2ccccc2)cc1	32 (≈ 80.8 µM)
O=C(O)c1cc(Br)ccc1NC(=O)c1ccc(F)c2ccccc12	32 (≈ 82.4 µM)
O=C(O)c1cc(Br)ccc1NC(=O)c1cccc2ccccc12	32 (≈ 86.4 µM)
Cc1cc(C)n(COc2ccc(C(=O)Nc3ccc(Br)cc3C(=O)O)cc2)n1	64 (≈ 144 µM)
CC(C)OCCOc1ccc(C(=O)Nc2ccc(Br)cc2C(=O)O)cc1	> 128
COC(=O)c1ccc(COc2ccc(C(=O)Nc3ccc(Br)cc3C(=O)O)cc2)cc1	> 128
O=C(Nc1ccc(Br)cc1C(=O)O)c1ccc(OCCSc2nc3ccccc3s2)cc1	64 (≈ 121 µM)
O=C(Nc1ccc(Br)cc1C(=O)O)c1ccc(OCCc2ccccn2)cc1	128 (≈ 290 µM)
O=C(Nc1ccc(Br)cc1C(=O)O)c1ccc(OC2CCOCC2)cc1	128 (≈ 305 µM)
CSc1ccc(C(=O)Nc2ccc(C#N)cc2C(=O)O)cc1	0.5 (≈ 1.6 µM)
O=C(Nc1ccc(Br)cc1C(=O)O)c1ccc(OCCN2C(=O)c3ccccc3C2=O)cc1	64 (≈ 126 µM)
COc1cc(OC)cc(C(=O)Nc2ccc(C#N)cc2C(=O)O)c1	8 (≈ 24.5 µM)
N#Cc1ccc(NC(=O)c2ccc(F)cc2)c(C(=O)O)c1	128 (≈ 450 µM)
O=C(Nc1ccc(Br)cc1C(=O)O)c1ccc(OCCNc2ccccc2)cc1	64 (≈ 141 µM)
N#Cc1ccc(NC(=O)c2cccc3ccccc23)c(C(=O)O)c1	16 (≈ 50.6 µM)
CCOC(=O)C1CCC(Oc2ccc(C(=O)Nc3ccc(Br)cc3C(=O)O)cc2)CC1 (stereo not drawn)	> 128
COCC1CCCN1S(=O)(=O)c1cccc(C(=O)Nc2ccc(C#N)cc2C(=O)O)c1 (stereo not drawn)	64 (≈ 144 µM)
CC(C)(C)c1ccc(-c2ccc(C(=O)Nc3ccc(C#N)cc3C(=O)O)cc2)cc1	32 (≈ 80.3 µM)
CC1CC(S(=O)(=O)c2cccc(C(=O)Nc3ccc(C#N)cc3C(=O)O)c2)CC(C)O1 (stereo not drawn)	16 (≈ 36.2 µM)

The remaining lines, values ahead:

MIC [µg/mL]	Structure (SMILES)
4 (≈ 7.53 µM)	COc1ccc(C(=O)Nc2ccc(Br)cc2C(=O)O)cc1S(=O)(=O)N1CCc2ccccc21
16 (≈ 29.6 µM)	COc1ccc(C(=O)Nc2ccc(Br)cc2C(=O)O)cc1S(=O)(=O)Nc1ccc(Cl)cc1
128 (≈ 359 µM)	O=C(Nc1ccc(Br)cc1C(=O)O)c1cc(F)ccc1F
8 (≈ 20 µM)	O=C(Nc1ccc(Br)cc1C(=O)O)c1cccc(Br)c1
8 (≈ 22.6 µM)	O=C(Nc1ccc(Br)cc1C(=O)O)c1cccc(Cl)c1
> 128	N#Cc1cccc(C(=O)Nc2ccc(Br)cc2C(=O)O)c1
32 (≈ 88.1 µM)	CN(C)c1cccc(C(=O)Nc2ccc(Br)cc2C(=O)O)c1
64 (≈ 189 µM)	O=C(Nc1ccc(Br)cc1C(=O)O)c1cccc(F)c1
32 (≈ 78 µM)	COc1cc(C(=O)Nc2ccc(Br)cc2C(=O)O)cc(OC)c1OC
8 (≈ 20.6 µM)	O=C(Nc1ccc(Br)cc1C(=O)O)c1cc(Cl)cc(Cl)c1
128 (≈ 273 µM)	CCOC(=O)Oc1c(OC)cc(C(=O)Nc2ccc(Br)cc2C(=O)O)cc1OC
128 (≈ 337 µM)	COc1ccc(C(=O)Nc2ccc(Br)cc2C(=O)O)cc1OC
16 (≈ 42.1 µM)	COc1cc(OC)cc(C(=O)Nc2ccc(Br)cc2C(=O)O)c1
64 (≈ 192 µM)	Cc1cccc(C(=O)Nc2ccc(Br)cc2C(=O)O)c1
> 128	CCOc1ccc(C(=O)Nc2ccc(Br)cc2C(=O)O)cc1OCC
64 (≈ 189 µM)	O=C(Nc1ccc(Br)cc1C(=O)O)c1ccc(F)cc1
8 (≈ 20.6 µM)	O=C(Nc1ccc(Br)cc1C(=O)O)c1cccc(C(F)(F)F)c1
32 (≈ 81.8 µM)	CCN(CC)c1ccc(C(=O)Nc2ccc(Br)cc2C(=O)O)cc1
128 (≈ 371 µM)	N#Cc1ccc(C(=O)Nc2ccc(Br)cc2C(=O)O)cc1
32 (≈ 88.1 µM)	CN(C)c1ccc(C(=O)Nc2ccc(Br)cc2C(=O)O)cc1

MIC [µg/mL]	Structure (SMILES)
0.5 (≈ 1.31 µM)	CCSc1ccc(C(=O)Nc2ccc(Br)cc2C(=O)O)cc1
8 (≈ 20.4 µM)	CCCCOc1ccc(C(=O)Nc2ccc(Br)cc2C(=O)O)cc1
32 (≈ 82.4 µM)	O=C(Nc1ccc(Br)cc1C(=O)O)c1ccc(C(F)(F)F)cc1
2 (≈ 5.46 µM)	CSc1ccc(C(=O)Nc2ccc(Br)cc2C(=O)O)cc1
> 128	C=Cc1ccc(C(=O)Nc2ccc(Br)cc2C(=O)O)cc1
32 (≈ 84.6 µM)	COC(=O)c1ccc(C(=O)Nc2ccc(Br)cc2C(=O)O)cc1
> 128	COc1cc(C(=O)Nc2ccc(Br)cc2C(=O)O)ccc1C
16 (≈ 43.9 µM)	O=C(Nc1ccc(Br)cc1C(=O)O)c1ccc2c(c1)OCO2
128 (≈ 351 µM)	O=C(Nc1ccc(Br)cc1C(=O)O)c1cccc([N+](=O)[O-])c1
2 (≈ 5.4 µM)	O=C(Nc1ccc(Br)cc1C(=O)O)c1ccc2ccccc2c1
64 (≈ 161 µM)	CS(=O)(=O)c1ccc(C(=O)Nc2ccc(Br)cc2C(=O)O)cc1
> 128	O=Cc1ccc(C(=O)Nc2ccc(Br)cc2C(=O)O)cc1
64 (≈ 151 µM)	COC(=O)c1cc(C(=O)Nc2ccc(Br)cc2C(=O)O)cc([N+](=O)[O-])c1
32 (≈ 81 µM)	COc1cc(C(=O)Nc2ccc(Br)cc2C(=O)O)ccc1[N+](=O)[O-]
32 (≈ 89.9 µM)	O=C(Nc1ccc(Br)cc1C(=O)O)c1ccc(F)c(F)c1
> 128	CSc1ccc(Cl)c(C(=O)Nc2ccc(Br)cc2C(=O)O)c1
> 128	COc1cc(C(=O)Nc2ccc(Br)cc2C(=O)O)c([N+](=O)[O-])cc1OC
16 (≈ 41.2 µM)	CC#CCOc1ccc(C(=O)Nc2ccc(Br)cc2C(=O)O)cc1
64 (≈ 132 µM)	O=C(Nc1ccc(Br)cc1C(=O)O)c1ccc(OCCc2cccc([N+](=O)[O-])c2)cc1
64 (≈ 152 µM)	CC(C)(C)CCOc1ccc(C(=O)Nc2ccc(Br)cc2C(=O)O)cc1
